This note sets out measurements from patent US11780842B2, “TYK2 pseudokinase ligands” (Ventyx Biosciences, Inc., priority 2019, dated 2023).

The test relates to IFN-a/Jak1Tyk2. Description: Co-stimulation assay in lysed whole blood: IFNa (JAK1/TYK2) stimulated STAT1 phosphorylation. It is filed as cell-based. As to conditions: lysed human whole blood, IFNa 100 ng/mL (co-stimulated with GM-CSF 10 ng/mL), pSTAT1 by flow cytometry. Here is the method:
Example 4: Co-Stimulation Assay in Lysed Whole Blood; JAK2: GM-CSF Stimulated STATS Phosphorylation and JAK1/TYK2 Stimulated STAT1 Phosphorylation Assay
Human Blood Lysis Using Abcam's RBC Lysis Buffer
Dilute RBC lysis buffer to 1× in distilled water. Add 2 mL blood to 38 mL of 1×RBC-lysis buffer. Incubate for 15 mins at RT, in dark. Spin at 300 g, 5 mins, to collect the pellet. Re-lyse if necessary. Re-suspend pellet in 5 mL of cRPMI.
Compound and Cytokine Treatment
Aliquot 80 μL of lysed human blood in to wells of 96 deep-well plate. Add 10 μl of (10× conc.) of different concentrations of compounds to all wells except controls (unstained and unstimulated) and mix it with the help of 100 uL multichannel. Add 10 uL of RPMI media in controls. For dilution of compounds and dilution range please refer Appendix. Incubate on water bath or CO2 incubator for 1 hour at 37° C. Add 10 μL of (10× conc.) of cytokine mix (GM-CSF and IFNa) (final conc. 10 ng/mL of GM-CSF and 100 ng/mL of IFNa) to each well except unstimulated and unstained controls and incubate further for 20 minutes on water bath at 37° C.
Add 900 μL of prewarmed 1× Fix/Lyse solution (Appendix) and mix it properly using 1000 μl multichannel, incubate further on water bath at 37° C. for 10 minutes (which includes time of addition). Centrifuge at 800× g for 5 minutes at 40° C.; remove 900 uL of supernatant and add 900 μL of 1×PBS. Centrifuge at 800× g for 5 minutes at 40° C., remove 900 μL of supernatant. Wash one more time with 900 μL of PBS (optional) and resuspend pellets in 100 uL of PBS.
Disrupt the pellet by gentle tapping and resuspend in 1000 μL of BD Phosflow Perm Buffer III and incubate plate on ice for 30 minutes. Centrifuge plate at 800× g for 5 minutes at 40° C. Wash two more times with 1000 μL of BD Pharmingen Stain Buffer.
Disrupt the pellet by gentle tapping. Resuspend pellets in 100 uL of Stain Buffer and add 5 μL of pSTAT5_AF488 Ab and 5 uL of pSTAT1_PE in all wells except unstained control and mix properly using 200 μl multichannel, incubate overnight at […]. Add 900 μL of wash buffer and centrifuge at 1800 rpm for 3 minutes at […]. Wash one more time with 1000 μL of BD Pharmingen Stain Buffer. Finally resuspend the pellet in 300 uL of BD Pharmingen Stain Buffer. Transfer the cells to 96-well v-bottom plate and acquire the cells in Beckman Coulter CytExpert. Acquiring cells in Flow Cytometer: Keep the threshold value to 250 and cell concentration should not exceed 100-500 cells/μL. Acquire at least 5,000-10,000 cells.
RPMI 1640 Complete Medium: RPMI 1640 media+10% FBS.
Cytokine dilution: 1) GM-CSF Stock at 100 ug/mL. Prepare an intermediate dilution of 1 ug/mL by adding 2 uL of stock into 198 uL of cRPMI. Further dilute to 100 ng/mL by adding 100 uL of the intermediate stock to 900 uL of cRPMI. 2) IFNa Stock at 200 ug/mL. Dilute IFNa stock 1:200 by adding 5 uL of stock into the 1000 uL of 100 ng/mL GM-CSF working stock as above to give a combined working stock of 1000 ng/mL of IFNa and 100 ng/mL GM-CSF (lox). Keep it on ice until used.
Lyse/Fix buffer preparation: Dilute 5× Lyse/Fix buffer to 1× using MQ water and keep at 37° C. until used.
BD Phosflow perm buffer III: Keep on ice/fridge.
For orientation: In flow cytometry, cells or beads pass a laser one at a time.

SMILES strings stand for the structures.

In the case of `CNc1cc2nc3c(cnn13)C(=O)NCCOc1cc(ccc1OC)N2` [Compound 31, (1^3E,1^4E)-3^4-methoxy-1^7-(methylamino)-4-oxa-2,7-diaza-1(5,3)-pyrazolo[1,5-a]pyrimidina-3(1,3)-benzenacyclooctaphan-8-one], the IC50 (as a rule, the midpoint of a concentration-inhibition curve) lay within 100 to 1000 nM.

`CNc1cc2nc3c(cnn13)C(=O)NCCCOc1ccc(F)cc1N2` [Compound 46, (1^3E,1^4E)-3^5-fluoro-1^7-(methylamino)-4-oxa-2,8-diaza-1(5,3)-pyrazolo[1,5-a]pyrimidina-3(1,2)-benzenacyclononaphan-9-one] came in with an IC50 of 1000 to 10000 nM.

Take `CNc1cc2nc3c(cnn13)C(=O)NCCCc1csc(n1)N2` [Compound 43, (1^2Z,3^3E,3^4E)-3^7-(methylamino)-2,5-diaza-1(2,4)-thiazola-3(5,3)-pyrazolo[1,5-a]pyrimidinacyclooctaphan-4-one]: the IC50 was 1000 to 10000 nM. In the case of `CNc1cc2nc3c(cnn13)C(=O)NCCOc1cccc(n1)N2` [Compound 17, (1^3E,1^4E)-1^7-(methylamino)-4-oxa-2,7-diaza-1(5,3)-pyrazolo[1,5-a]pyrimidina-3(2,6)-pyridinacyclooctaphan-8-one] it was no more than 500 nM; in that of `CNc1cc2nc3c(cnn13)C(=O)NCCc1cccc(c1)N2` [Compound 16, (1^3E,1^4E)-1^7-(methylamino)-2,6-diaza-1(5,3)-pyrazolo[1,5-a]pyrimidina-3(1,3)-benzenacycloheptaphan-7-one], no more than 500 nM; in that of `[2H]C1([2H])NC(=O)c2cnn3c(NC)cc(nc23)Nc2cccc(c2)OC1([2H])[2H]` [Compound 15, (1^3E,1^4E)-1^7-(methylamino)-4-oxa-2,7-diaza-1(5,3)-pyrazolo[1,5-a]pyrimidina-3(1,3)-benzenacyclooctaphn-8-one-5,5,6,6-d4], no more than 500 nM. In turn, `CNc1cc2nc3c(cnn13)C(=O)NCCOc1cc(c(Cl)cc1Cl)N2` [Compound 27, (1^3E,1^4E)-3^4,3^6-dichloro-1^7-(methylamino)-4-oxa-2,7-diaza-1(5,3)-pyrazolo[1,5-a]pyrimidina-3(1,3)-benzenacyclooctaphan-8-one] gave an IC50 of 100 to 1000 nM.

For the compound `CNc1cc2nc3c(cnn13)C(=O)NCCc1cccc(n1)N2` [Compound 42, (1^3E,1^4E)-1^7-(methylamino)-2,6-diaza-1(5,3)-pyrazolo[1,5-a]pyrimidina-3(2,6)-pyridinacycloheptaphan-7-one], the IC50 lay within 1000 to 10000 nM. In the case of `CNc1cc2nc3c(cnn13)C(=O)NCCn1cc(cn1)N2` [Compound 47, (1^3E,1^4E,3^4E)-1^7-(methylamino)-31H-2,6-diaza-1(5,3)-pyrazolo[1,5-a]pyrimidina-3(4,1)-pyrazolacycloheptaphan-7-one] it was 1000 to 10000 nM. Compound `[2H]C([2H])([2H])Nc1cc2nc3c(cnn13)C(=O)NCCCc1cccc(c1)N2` [Compound 24, (1^3E,1^4E)-1^7-((methyl-d3)amino)-2,7-diaza-1(5,3)-pyrazolo[1,5-a]pyrimidina-3(1,3)-benzenacyclooctaphan-8-one] gave an IC50 of 100 to 1000 nM.

For the compound `CNc1cc2nc3c(cnn13)C(=O)NCCOc1cc(F)cc(c1)N2` [Compound 19, (1^3E,1^4E)-3^5-fluoro-1^7-(methylamino)-4-oxa-2,7-diaza-1(5,3)-pyrazolo[1,5-a]pyrimidina-3(1,3)-benzenacyclooctaphan-8-one], the IC50 was in the range of 100 to 1000 nM. The compound `CNc1cc2nc3c(cnn13)C(=O)NCCCn1cc(cn1)N2` [Compound 45, (1^3E,1^4E,3^4E)-1^7-(methylamino)-31H-2,7-diaza-1(5,3)-pyrazolo[1,5-a]pyrimidina-3(4,1)-pyrazolacyclooctaphan-8-one] registered an IC50 of 1000 to 10000 nM. `CNc1cc2nc3c(cnn13)C(=O)NCCCCOc1cccc(c1)N2` [Compound 35, (1^3E,1^4E)-1^7-(methylamino)-4-oxa-2,9-diaza-1(5,3)-pyrazolo[1,5-a]pyrimidina-3(1,3)-benzenacyclodecaphan-10-one]: the half-maximal inhibitory concentration (IC50) was 100 to 1000 nM.

For `CNc1cc2nc3c(cnn13)C(=O)NCCOc1cc(c(F)cc1F)N2` [Compound 29, (1^5E,1^4E)-3^4,3^6-difluoro-1^7-(methylamino)-4-oxa-2,7-diaza-1(5,3)-pyrazolo[1,5-a]pyrimidina-3(1,3)-benzenacyclooctaphan-8-one], the IC50 lay in the range of 100 to 1000 nM. In the case of `CNc1cc2nc3c(cnn13)C(=O)NCCCc1cc(cc(OC)c1)N2` [Compound 40, (1^3E,1^4E)-3^5-methoxy-1^7-(methylamino)-2,7-diaza-1(5,3)-pyrazolo[1,5-a]pyrimidina-3(1,3)-benzenacyclooctaphan-8-one] it was 1000 to 10000 nM.

`CNc1cc2nc3c(cnn13)C(=O)NCC(C)Oc1ccccc1N2` (stereo not drawn) [Compound 30, (1^3E,1^4E)-5-methyl-1^7-(methylamino)-4-oxa-2,7-diaza-1(5,3)-pyrazolo[1,5-a]pyrimidina-3(1,2)-benzenacyclooctaphan-8-one] displayed an IC50 of 100 to 1000 nM. In the case of `CNc1cc2nc3c(cnn13)C(=O)NCCOc1cccc(c1)N2` [Compound 7, (1^3E,1^4E)-1^7-(methylamino)-4-oxa-2,7-diaza-1(5,3)-pyrazolo[1,5-a]pyrimidina-3(1,3)-benzenacyclooctaphan-8-one] it was no more than 500 nM; in that of `CNc1cc2nc3c(cnn13)C(=O)NCCOc1cncc(c1)N2` [Compound 41, (1^3E,1^4E)-1^7-(methylamino)-4-oxa-2,7-diaza-1(5,3)-pyrazolo[1,5-a]pyrimidina-3(3,5)-pyridinacyclooctaphan-8-one], 1000 to 10000 nM. Turning to `CNc1cc2nc3c(cnn13)C(=O)NCCCc1cccc(c1)N2` [Compound 18, (1^3E,1^4E)-1^7-(methylamino)-2,7-diaza-1(5,3)-pyrazolo[1,5-a]pyrimidina-3(1,3)-benzenacyclooctaphan-8-one], the IC50 lay in the range of 100 to 1000 nM.

Compound `CNc1cc2nc3c(cnn13)C(=O)NCCOc1cc(Cl)cc(c1)N2` [Compound 33, (1^3E,1^4E)-3^5-chloro-1^7-(methylamino)-4-oxa-2,7-diaza-1(5,3)-pyrazolo[1,5-a]pyrimidina-3(1,3)-benzenacyclooctaphan-8-one] registered an IC50 of 100 to 1000 nM. In the case of `CNc1cc2nc3c(cnn13)C(=O)NCCOc1cc(ccc1F)N2` [Compound 21, (1^3E,1^4E)-3^4-fluoro-1^7-(methylamino)-4-oxa-2,7-diaza-1(5,3)-pyrazolo[1,5-a]pyrimidina-3(1,3)-benzenacyclooctaphan-8-one] it was 100 to 1000 nM. In the case of `CNc1cc2nc3c(cnn13)C(=O)NCCOc1ccc(F)c(c1)N2` [Compound 22, (1^3E,1^4E)-3^6-fluoro-1^7-(methylamino)-4-oxa-2,7-diaza-1(5,3)-pyrazolo[1,5-a]pyrimidina-3(1,3)-benzenacyclooctaphan-8-one] it was 100 to 1000 nM. The result for `CNc1cc2nc3c(cnn13)C(=O)NCCOc1ccc(F)cc1N2` [Compound 32, (1^3E,1^4E)-3^5-fluoro-1^7-(methylamino)-4-oxa-2,7-diaza-1(5,3)-pyrazolo[1,5-a]pyrimidina-3(1,2)-benzenacyclooctaphan-8-one] reads 100 to 1000 nM; that for `CNc1cc2nc3c(cnn13)C(=O)NCCOc1cc(F)ccc1N2` [Compound 34, (1^3E,1^4E)-3^4-fluoro-1^7-(methylamino)-4-oxa-2,7-diaza-1(5,3)-pyrazolo[1,5-a]pyrimidina-3(1,2)-benzenacyclooctaphan-8-one], 100 to 1000 nM.
